According to US20030153081A1, “Viral core protein-cationic lipid-nucleic acid-delivery complexes” (priority 1999, published 2003):

Key:
COS-7 cells = test: β-galactosidase enzyme assay, transfection of COS-7 cells; assay type: cell-based, Green Monkey; conditions: COS-7, same pDNA:Mu1:liposome ratio as optimal for ND7
Protocol: COS cells were seeded at a density of 60-80% confluence in 24 well culture dishes 24 hrs prior to transfection. Immediately prior to transfection, cells were washed in serum-free media Incubating pCMVβ with Mu1 prior to the addition of the cationic liposome DC-Chol/DOPE formed complexes capable of cellular transfection. In each case 1 μg pCMVβ was complexed with 12 μg Mu1 peptide that had been found optimal for ND7 cells. The pCMVβ:Mu1 complexes were then mixed with 3, 4 and 6 μg DC-Chol/DOPE. COS cells were exposed to transfection complexes for 2 hours then maintained at 37° C., 5% CO2 for another 24 hrs before being harvested and processed for β-galactosidase enzyme assay. Numbers represent means±SD, n=3.
COS-7 cells (derived from Green Monkey kidney) were grown in RPMI 1640 media (BRL) supplemented with 10% fetal bovine serum (BRL) and 100 IU/mL penicillin/streptomycin (BRL).
In order to see whether improved transfections could be achieved in other cell types we performed a similar analysis on COS-7 cells. […] The same ratio of pDNA:Mu1:liposome optimal for ND7 cells was best for COS-7, cells. A similar degree of improvement was also seen (3.7 fold) over cationic liposomes alone.

Swiss 3T3 cells = test: β-galactosidase assay, Mu1 vs protamine in confluent Swiss 3T3 cells; assay type: cell-based; conditions: liposome (B198:DOPE 3:2):peptide:DNA 12:0.6:1, final DNA concentration 5.0 μg/l, 1 or 2 h
From the text: Protamine is a naturally occurring cationic peptide abundant in piscine sperm and is potent in neutralising and condensing DNA. The transfection activity of protamine was compared with that of Mu1 peptide. Mu1 peptide or protamine sulfate (Sigma, grade X from Salmon) was complexed with DNA (pCMVβ) and then cationic liposomes (B 198:DOPE in a ratio of 3:2 m/m) giving a liposome:peptide:DNA ratio of 12:0.6:1 (w/w/w).
The transfection activities were examined in Swiss 3T3 cells. The cells were seeded at an approximate density of 2×10^4 per well in a 24-well culture plate in DMEM supplemented with 10% FCS and grown for 48 h to complete confluence in the presence of 5% CO2 at 37° C. Cells were washed by brief exposure to DMEM and then treated with solutions containing LMD or LD complexes, prediluted with DMEM (final DNA concentration 5.0 μg/l in all cases), for 1 or 2 h. Cells were then washed again and incubated for a further 48 h in DMEM supplemented with 10% FCS prior to harvesting. The level of β-galactosidase enzyme activity was determined with a standard assay kit (Promega).

differentiated ND7 cells = test: X-gal histochemistry, transfection of differentiated ND7 cells; assay type: cell-based, rat/mouse
Protocol: ND7 cells were plated in a 24 well culture plate at a density of 4×10^4 cells per well in normal growth media (+serum). Twenty-four hours later the media was replaced with differentiation media and the cells were grown for an additional 24 hrs. Three different differentiation medias were used; serum-free (−serum), normal growth media plus 1 mM cAMP (cAMP), or reduced serum (0.5%) plus 1 mM cAMP and 50 ng/ml nerve growth factor (NGF). The cells were then transfected with pCMVb complexed with either DC-Chol/DOPE alone or Mu1 plus DC-Chol/DOPE. Forty-eight hours later the cells were fixed and processed for X-Gal histochemistry and the percentage of positive cells determined.
Differentiation of ND7 cells was carried out using three previously described methods ^28, 29. ND7 cells were seeded in NGM at a density of 4×10^4 cells per well in a 24 well culture dish (Nunc). Twenty four hours later the media was replaced with either: a) NGM supplemented with 1 mM adenosine 3′:5′-cyclic monophosphate (cAMP; Sigma), or b) serum-free differentiation media (50% Hams F12, 50% DMEM, 5 μg/mL Transterrin, 250 ng/mL Insulin, 0.3 μM sodium selenite), or c) low serum nerve growth factor (NGF) media (L-15 supplemented with 2 mM glutamine, 4 g/L glucose, 4 g/L sodium bicarbonate, 10 u/mL penicillin, […] streptomycin, 0.5% FCS, 1 mM cAMP, 50 ng/mL NGF (Alomone Labs)). Differentiated ND7 cells were grown in appropriate media for 24 hrs at 37° C., 5% CO2 prior to transfection.
We also examined the ability of Mu1 to improved cationic liposome-mediated transfection in differentiated ND7s. The ND7 cell line is derived from a fusion of primary rat dorsal root ganglia (DRG) neurons and the mouse neuroblastoma N18Tg2 ^28. ND7 cells can be differentiated in a variety of manners including the withdrawal of serum, cAMP administration or exposure to reduced serum plus cAMP and nerve growth factor. Differentiation of ND7s leads to the expression of cellular properties associated with their parental nociceptive sensory neurons including a reduction in cell division and the onset of neurite outgrowth. ND7 cells were seeded in 24 well culture plates and 24 hours later differentiated. Fifteen to 20 hours following the onset of differentiation, they were transfected as above. Fifteen to 20 hours following transfection, cells were fixed and processed for X-gal histochemistry. Consistent with previous observations, transfection efficiencies varied greatly between the three differentiated groups. […] In all three conditions, however, inclusion of Mu1 polypeptide in the transfection complex improved the transduction of differentiated ND7 cells. […] The greatest improvement in efficiencies was seen, however, in the group differentiated by serum withdrawal. Here, increases of greater than 10 fold were observed.

Q: What does the source list for H-MRRAHHRRRRASHRRMRGG-OH [Mu1]?
A: improvement over cationic liposomes alone (COS-7 cells): 3.7 fold; transfection compared with complexes comprising protamine (Swiss 3T3 cells): better transfection; number of positive cells (FIG. 6) (differentiated ND7 cells; all three differentiation media, Mu1 plus DC-Chol/DOPE vs DC-Chol/DOPE alone): increased the number of positive cells; increased efficiency by inclusion of Mu1 (differentiated ND7 cells; differentiated by cAMP alone): greater than 6 fold; increased efficiency by inclusion of Mu1 (differentiated ND7 cells; differentiated by serum withdrawal): greater than 10 fold; increased efficiency by inclusion of Mu1 (differentiated ND7 cells; low serum/cAMP/NGF): greater than 6 fold
